Experimental data from ChEMBL document CHEMBL4673352, “Discovery of AZD4573, a Potent and Selective Inhibitor of CDK9 That Enables Short Duration of Target Engagement for the Treatment of Hematological Malignancies” (J Med Chem, 2020).
Activity calls are given as the source filed them. No cut-off for these calls is given here.

What was measured:
[1] = biological target: T1, Dual specificity tyrosine-phosphorylation-regulated kinase 2 (Homo sapiens) (UniProt Q92630); assay: Inhibition of human recombinant full length N-terminal GST-tagged DYRK2 expressed in Escherichia coli at 0.1 uM incubated for 60 mins by TR-FRET based LanthaScreen Eu kinase binding assay relative to control
T1 sequence (whole entry): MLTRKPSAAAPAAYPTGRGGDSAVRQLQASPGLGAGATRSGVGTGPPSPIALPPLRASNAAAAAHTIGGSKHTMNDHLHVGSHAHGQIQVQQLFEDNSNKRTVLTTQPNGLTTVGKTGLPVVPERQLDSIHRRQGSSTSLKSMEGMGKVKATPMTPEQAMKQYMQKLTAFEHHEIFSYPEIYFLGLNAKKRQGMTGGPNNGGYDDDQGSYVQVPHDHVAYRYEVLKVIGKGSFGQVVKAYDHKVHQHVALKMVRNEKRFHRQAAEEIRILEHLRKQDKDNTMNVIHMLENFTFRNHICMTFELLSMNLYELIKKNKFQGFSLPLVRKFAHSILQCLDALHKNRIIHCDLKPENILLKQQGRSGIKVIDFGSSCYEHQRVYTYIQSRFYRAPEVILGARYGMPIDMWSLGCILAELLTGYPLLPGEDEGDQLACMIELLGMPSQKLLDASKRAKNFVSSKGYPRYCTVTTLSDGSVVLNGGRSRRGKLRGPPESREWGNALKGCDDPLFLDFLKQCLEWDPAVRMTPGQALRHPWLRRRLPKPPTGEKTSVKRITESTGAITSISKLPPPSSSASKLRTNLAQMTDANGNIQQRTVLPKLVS

[2] = Volume of distribution at steady state in mouse at 2.3 umol/kg, iv formulated as solution; assay type: ADME, organism-based; conditions: in vivo, dose 2.3 µmol/kg, read-out: Vdss
[3] = Intrinsic clearance in monkey cryopreserved hepatocytes assessed per million cells […]; assay type: ADME, cell-based, Macaca mulatta, Hepatocyte; conditions: rhesus monkey, read-out: CLH
[4] = Drug metabolism in human liver microsome assessed as (1S,3R)-3-acetamido-N-(5-chloro-4-(6-hydroxy-5,5-dimethyl-5,6-dihydro-4H-pyrrolo[1,2-b]pyrazol-3-yl)pyridin-2-yl)cyclohexanecarboxamide formation at 10 uM measured after 1 hr in presence of NADPH by LC-UV-MS analysis; assay type: ADME; conditions: microsomes
[5] = Drug metabolism in human hepatocytes assessed as (1S,3R)-3-acetamido-N-(5-chloro-4-(5-(3-hydroxy-2,2-dimethylpropyl)-1H-pyrazol-4-yl)pyridin-2-yl)cyclohexanecarboxamide metabolite formation; assay type: ADME, cell-based, Hepatocyte
[6] = Drug metabolism in human liver microsomes assessed as (1S,3R)-3-acetamido-N-(5-chloro-4-(5-(3-hydroxy-2,2-dimethylpropyl)-1H-pyrazol-4-yl)pyridin-2-yl)cyclohexanecarboxamide formation at 10 uM measured after 1 hr in presence of NADPH by LC-UV-MS analysis; assay type: ADME, Microsome
[7] = biological target: Mitogen-activated protein kinase kinase kinase 9 (Homo sapiens) (UniProt P80192); assay: Inhibition of human recombinant MAP3K9 using casein as substrate at 1 uM incubated for 40 mins in presence of [gamma32P]-ATP by scintillation counting method relative to control
NOMO-1 [8] = assay: Antitumor activity against human NOMO1 cells xenografted in CB17 SCID mouse assessed as tumor regression at 15 mg/kg, ip BID administered at 2 hrs dosing interval with 2 days on and 5 days off dosing schedule measured 12 days post initial dose; assay type: functional; conditions: time 12 day
[9] = biological target: Glycogen synthase kinase-3 alpha (Homo sapiens, UniProt P49840); assay: Inhibition of GSK3alpha (unknown origin) in presence of 5 mM ATP
[10] = Drug metabolism in human liver microsomes assessed as3-(4-(2-((1S,3R)-3-acetamidocyclohexanecarboxamido)-5-chloropyridin-4-yl)-1H-pyrazol-5-yl)-2,2-dimethylpropanoic acid formation at 10 uM measured after 1 hr in presence of NADPH by LC-UV-MS analysis; assay type: ADME, Microsome
[11] = biological target: Mitogen-activated protein kinase 8 (Homo sapiens, UniProt P45983); assay: Inhibition of human recombinant His-tagged JNK1 expressed in baculovirus expression system at 0.1 uM incubated for 60 mins by TR-FRET based LanthaScreen Eu kinase binding assay relative to control
[12] = biological target: Dual specificity mitogen-activated protein kinase kinase 7 (Homo sapiens) (UniProt O14733); assay: Inhibition of human recombinant […] using NK1a1 as substrate at 1 uM incubated for 40 mins in presence of [gamma32P]-ATP by scintillation counting method relative to control
[13] = biological target: Cyclin-dependent kinase 9 (Mus musculus) (UniProt Q99J95); assay: In-vivo inhibition of CDK9 in mouse xenografted with human MV4-11 cells assessed as reduction in RNA Polymerase 2 CTD phosphorylation at Ser2 residues at 5 to 15 mg/kg, ip BID administered at 2 hrs dose interval with 2 days on and 5 days off dosing schedule by Western blot analysis; assay type: functional, organism-based; conditions: dose 5-15 mg/kg
NOMO-1 [14] = assay: Antitumor activity against human NOMO1 cells xenografted in CB17 SCID mouse assessed as cell death at 5 mg/kg, ip BID administered at 2 hrs dosing interval with 2 days on and 5 days off dosing schedule; assay type: functional, organism-based
[15] = biological target: Glycogen synthase kinase-3 beta (Homo sapiens, UniProt P49841); assay: Inhibition of GSK3beta (unknown origin) in presence of 5 mM ATP
[16] = Half-life in Beagle dog at […], iv administered over 0.25 hrs formulated as solution in DMSO/Captisol; assay type: ADME, organism-based, Canis lupus familiaris; conditions: in vivo, dose 0.24 µmol/kg
[17] = Drug metabolism in human hepatocytes assessed as 3-(4-(2-((1S,3R)-3-acetamidocyclohexanecarboxamido)-5-fluoropyridin-4-yl)-1H-pyrazol-5-yl)-2,2-dimethylpropanoic acid metabolite formation; assay type: ADME, cell-based, Hepatocyte
[18] = biological target: Cyclin-dependent kinase 7/ cyclin H (Homo sapiens) (UniProt P51946+P50613); assay: Inhibition of human recombinant full-length CDK7/CyclinH using peptide as substrate incubated for 40 mins in presence of [gamma-33P]ATP at 1 uM by scintillation counting method relative to control; assay type: protein-complex assay
[19] = Volume of distribution at steady state in Beagle dog at […], iv administered over 0.25 hrs formulated as solution in DMSO/Captisol; assay type: ADME, organism-based, Canis lupus familiaris; conditions: in vivo, dose 0.24 µmol/kg, read-out: Vdss
[20] = Drug metabolism in human liver microsome assessed as (1S,3R)-3-acetamido-N-(5-chloro-4-(7-hydroxy-4,5,6,7-tetrahydropyrazolo[1,5-a]pyridin-3-yl)pyridin-2-yl)cyclohexanecarboxamide formation at 10 uM measured after 1 hr in presence of NADPH by LC-UV-MS analysis; assay type: ADME; conditions: microsomes

Mitogen-activated protein kinase 8, sequence (P45983 whole entry): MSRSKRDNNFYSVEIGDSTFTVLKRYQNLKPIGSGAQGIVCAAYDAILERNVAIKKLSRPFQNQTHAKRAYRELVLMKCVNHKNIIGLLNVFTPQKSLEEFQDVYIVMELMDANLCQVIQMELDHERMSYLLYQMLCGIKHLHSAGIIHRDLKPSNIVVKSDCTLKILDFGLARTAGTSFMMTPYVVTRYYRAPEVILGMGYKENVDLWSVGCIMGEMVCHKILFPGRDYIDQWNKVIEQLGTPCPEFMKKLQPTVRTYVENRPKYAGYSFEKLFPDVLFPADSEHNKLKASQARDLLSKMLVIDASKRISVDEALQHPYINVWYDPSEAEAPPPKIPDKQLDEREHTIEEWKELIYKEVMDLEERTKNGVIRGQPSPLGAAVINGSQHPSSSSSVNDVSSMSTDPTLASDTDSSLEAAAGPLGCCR
Cyclin-dependent kinase 9 (Mus musculus), sequence (Q99J95 whole entry): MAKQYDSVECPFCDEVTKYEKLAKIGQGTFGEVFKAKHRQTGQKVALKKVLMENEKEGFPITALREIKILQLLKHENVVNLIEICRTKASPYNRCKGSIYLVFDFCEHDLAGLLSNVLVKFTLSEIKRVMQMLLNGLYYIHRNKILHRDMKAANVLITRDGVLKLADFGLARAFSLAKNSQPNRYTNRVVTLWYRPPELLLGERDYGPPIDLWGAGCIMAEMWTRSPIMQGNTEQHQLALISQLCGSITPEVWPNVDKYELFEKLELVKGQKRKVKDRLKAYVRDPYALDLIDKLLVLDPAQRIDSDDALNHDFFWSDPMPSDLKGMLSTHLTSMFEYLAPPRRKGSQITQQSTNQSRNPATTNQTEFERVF
Glycogen synthase kinase-3 beta, sequence (P49841 whole entry): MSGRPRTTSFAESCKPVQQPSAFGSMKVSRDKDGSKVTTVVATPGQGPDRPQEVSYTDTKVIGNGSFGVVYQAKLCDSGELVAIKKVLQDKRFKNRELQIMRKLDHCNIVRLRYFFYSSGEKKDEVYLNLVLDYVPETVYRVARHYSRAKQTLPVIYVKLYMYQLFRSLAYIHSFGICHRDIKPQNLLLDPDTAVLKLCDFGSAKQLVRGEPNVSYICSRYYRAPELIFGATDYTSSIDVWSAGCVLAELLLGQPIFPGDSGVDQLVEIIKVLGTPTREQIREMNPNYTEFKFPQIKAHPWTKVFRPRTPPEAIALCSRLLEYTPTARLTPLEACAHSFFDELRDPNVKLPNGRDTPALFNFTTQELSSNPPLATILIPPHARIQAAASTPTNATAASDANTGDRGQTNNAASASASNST
Glycogen synthase kinase-3 alpha, sequence (P49840 whole entry): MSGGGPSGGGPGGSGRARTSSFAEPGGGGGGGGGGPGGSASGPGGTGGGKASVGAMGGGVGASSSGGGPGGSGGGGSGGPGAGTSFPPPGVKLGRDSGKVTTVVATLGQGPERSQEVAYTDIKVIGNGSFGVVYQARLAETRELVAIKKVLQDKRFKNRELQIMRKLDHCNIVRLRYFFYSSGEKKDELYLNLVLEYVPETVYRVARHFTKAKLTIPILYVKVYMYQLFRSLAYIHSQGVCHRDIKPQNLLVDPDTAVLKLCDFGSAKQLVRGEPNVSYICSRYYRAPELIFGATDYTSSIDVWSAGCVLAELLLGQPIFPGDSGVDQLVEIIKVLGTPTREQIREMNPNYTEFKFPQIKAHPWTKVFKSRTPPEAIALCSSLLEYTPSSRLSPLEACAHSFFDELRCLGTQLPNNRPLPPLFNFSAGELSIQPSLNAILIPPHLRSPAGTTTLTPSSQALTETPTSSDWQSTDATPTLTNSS
Dual specificity mitogen-activated protein kinase kinase 7 (Homo sapiens), sequence (O14733 whole entry): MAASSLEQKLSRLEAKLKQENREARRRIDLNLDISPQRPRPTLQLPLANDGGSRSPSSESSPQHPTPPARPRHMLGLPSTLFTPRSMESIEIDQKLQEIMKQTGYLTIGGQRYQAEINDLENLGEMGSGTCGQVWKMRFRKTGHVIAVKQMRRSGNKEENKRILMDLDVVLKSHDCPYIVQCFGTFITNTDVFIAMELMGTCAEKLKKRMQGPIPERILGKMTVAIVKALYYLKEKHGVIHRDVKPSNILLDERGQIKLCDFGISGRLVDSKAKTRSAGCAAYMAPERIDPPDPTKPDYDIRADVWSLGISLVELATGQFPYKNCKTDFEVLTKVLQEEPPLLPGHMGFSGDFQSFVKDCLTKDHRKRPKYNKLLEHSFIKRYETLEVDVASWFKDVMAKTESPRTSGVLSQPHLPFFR
Mitogen-activated protein kinase kinase kinase 9 (Homo sapiens), sequence (P80192 whole entry, looked up): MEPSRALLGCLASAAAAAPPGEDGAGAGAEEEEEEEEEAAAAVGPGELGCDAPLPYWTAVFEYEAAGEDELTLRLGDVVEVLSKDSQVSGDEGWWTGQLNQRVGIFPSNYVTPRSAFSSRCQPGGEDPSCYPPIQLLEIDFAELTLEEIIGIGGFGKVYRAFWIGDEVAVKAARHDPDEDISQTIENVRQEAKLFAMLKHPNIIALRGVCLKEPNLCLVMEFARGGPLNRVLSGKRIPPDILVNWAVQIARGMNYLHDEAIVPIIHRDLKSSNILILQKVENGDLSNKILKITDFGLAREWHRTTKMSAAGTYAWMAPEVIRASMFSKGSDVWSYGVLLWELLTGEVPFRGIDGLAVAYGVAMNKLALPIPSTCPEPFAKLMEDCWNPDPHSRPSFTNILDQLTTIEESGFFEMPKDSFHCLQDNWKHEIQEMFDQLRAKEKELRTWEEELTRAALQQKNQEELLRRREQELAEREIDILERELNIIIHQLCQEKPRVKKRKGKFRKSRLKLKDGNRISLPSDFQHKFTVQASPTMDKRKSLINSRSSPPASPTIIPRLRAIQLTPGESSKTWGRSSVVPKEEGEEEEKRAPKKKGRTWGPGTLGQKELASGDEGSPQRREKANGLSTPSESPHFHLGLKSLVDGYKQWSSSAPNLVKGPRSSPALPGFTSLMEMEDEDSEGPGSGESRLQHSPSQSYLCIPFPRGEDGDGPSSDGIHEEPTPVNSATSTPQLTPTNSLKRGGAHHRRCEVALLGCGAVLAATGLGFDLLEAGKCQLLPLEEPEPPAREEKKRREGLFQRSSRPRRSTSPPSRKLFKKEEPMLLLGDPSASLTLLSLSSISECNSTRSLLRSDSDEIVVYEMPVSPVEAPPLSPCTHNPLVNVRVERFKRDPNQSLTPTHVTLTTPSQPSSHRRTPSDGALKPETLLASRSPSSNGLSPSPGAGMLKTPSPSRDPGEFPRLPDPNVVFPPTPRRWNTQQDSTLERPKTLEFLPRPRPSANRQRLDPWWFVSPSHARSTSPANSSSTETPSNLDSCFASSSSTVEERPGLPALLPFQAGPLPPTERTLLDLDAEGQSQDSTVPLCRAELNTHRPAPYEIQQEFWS

For `CC(=O)N[C@@H]1CCC[C@H](C(=O)Nc2cc(-c3cnn4c3CC(C)(C)C4)c(Cl)cn2)C1` [ZEMIRCICLIB], which inhibition [1] is on record?
Its inhibition is 85%.

What about the Vd [2] of the same compound?
The Vd was 0.45 L/kg.

And the hepatocyte CLint [3]?
Its hepatocyte CLint is 32 µL/min/1e6 cells.

And the Drug metabolism [4]?
Its Drug metabolism is “Metabolite_Detected”.

What about the Drug metabolism [5] of the same compound?
The Drug metabolism was “Metabolite_Detected”.

What about the Drug metabolism [6] of the same compound?
Its Drug metabolism is “Metabolite_Detected”.

And the inhibition [7]?
The inhibition was 82%.

And the Activity (NOMO-1 [8])?
Its Activity is 65%.

What about the IC50 [9] of the same compound?
The IC50 was 187 nM.

And the Drug metabolism [10]?
The Drug metabolism was “Metabolite_Detected”.

What about the inhibition [11] of the same compound?
Its inhibition is 84%.

What about the inhibition [12] of the same compound?
Its inhibition is 85%.

What about the inhibition [13] of the same compound?
Its inhibition is “Active”.

What about the Activity (NOMO-1 [14]) of the same compound?
Its Activity is “Active”.

What about the IC50 [15] of the same compound?
The IC50 was 247 nM.

What does the source list for `CC(=O)N[C@@H]1CCC[C@H](C(=O)Nc2cc(-c3cnn4c3CC(C)(C)C4)c(F)cn2)C1`?
half-life at 0.25 h [16]: 25.8 min; Drug metabolism [17]: Metabolite_Detected; inhibition [18]: 92%; Vd at 0.25 h [19]: 1.2 L/kg

Which Drug metabolism [20] does the source give for `CC(=O)N[C@@H]1CCC[C@H](C(=O)Nc2cc(-c3cnn4c3CCCC4)c(Cl)cn2)C1` here?
The Drug metabolism was “Metabolite_Detected”.
